From patent publication US9586986B2, “Substituted 7-deazapurine ribonucleosides for therapeutic uses” (Institute of Organic Chemistry and Biochemistry ASCR, v.v.i., priority 2014, dated 2017)
Like-named read-outs stand apart in the source and are kept apart here.

Legend:
Format in all cases: cell-based
CEM-DNR-bulk = assay: Cytostatic/cytotoxic MTT assay, CEM-DNR-bulk; conditions: Homo sapiens, 72 h, read-out: MTT, IC50 CEM-DNR-bulk
Method in brief: (§1)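 Human cancer lines, including daunorubicin-resistant CEM-DNR (mrp-1/mdr-1 overexpressing) and paclitaxel-resistant K562-TAX (mdr-1), seeded 25,000-30,000 cells/well, pre-incubated 24 h, then treated in duplicate with four-fold dilutions for 72 h at 37° C, 5% CO2. MTT read-out at 540 nm; IC50 from dose-response curves.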

K562-TAX = assay: Cytostatic/cytotoxic MTT assay, K562-TAX; conditions: Homo sapiens, 72 h, read-out: MTT, IC50 K562-TAX
Method in brief: as §1

MRC-5 = assay: Cytostatic/cytotoxic MTT assay, MRC-5 fibroblasts; conditions: Homo sapiens, read-out: MTT, IC50 MRC-5
Method in brief: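 Following 24 h stabilisation, wells received compound as four-fold serial dilutions (duplicates) and were incubated 72 h. MTT conversion (1-4 h) was quantified at 540 nm; the concentration giving 50% growth inhibition was reported.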

HCT116 = assay: Cytostatic/cytotoxic MTT assay, HCT116; conditions: Homo sapiens, read-out: MTT, IC50 HCT116
Method in brief: as §1

[1] = tested on: Huh-7 cells harboring replicon 1B; assay: Cytotoxicity in replicon 1B cells; conditions: HCV subtype 1B replicon
Method: (§2) Compounds were also tested in Huh-7 cells harboring sub-genomic reporter replicons derived from HCV subtypes 1B and 2A (ref.: Stuyver, L. J.; Whitaker, T.; McBrayer, T. R.; Hernandez-Santiago, B. I.; Lostia, S.; Tharnish, P. M.; Ramesh, M.; Chu, C. K.; Jordan, R.; Shi, J. X.; Rachakonda, S.; Watanabe, K. A.; Otto, M. J.; Schinazi, R. F. Antimicrob. Agents Chemother. 2003, 47, 244-254).

[2] = tested on: HCV subtype 2A replicon in Huh-7 cells; assay: HCV sub-genomic reporter replicon assay, subtype 2A; conditions: Hepatitis C virus
Method: as §2

CCRF-CEM = assay: Cytostatic/cytotoxic MTT assay, CCRF-CEM; conditions: Homo sapiens, read-out: MTT, IC50 CCRF-CEM
Method in brief: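 Optical density at 540 nm of SDS-dissolved formazan gives the read-out, with IC50 derived from dose-response curves. Cells (25,000-30,000/well) are treated for 72 h at 37 °C with four-fold compound dilutions, tested in duplicate, then stained with MTT for 1-4 h.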

HepG2 = assay: XTT cytotoxicity assay, HepG2; conditions: Homo sapiens, read-out: XTT, IC50 HepG2
Method in brief: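 HepG2 cells seeded at 10,000/well, compounds added after 24 h and incubated 72 h at 37 °C, 5% CO2. Viability by XTT reduction (1 mg/mL XTT plus electron coupler), absorbance at 495 nm after 2 h; IC50 by non-linear regression.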

HCT116p53-/- = assay: Cytostatic/cytotoxic MTT assay, HCT116p53-/-; conditions: Homo sapiens, read-out: MTT, IC50 HCT116 p53-/-
Method in brief: as §1

[3] = MRC5, non-malignant fibroblasts, 72 h
[4] = Huh-7 cells, HCV subtype 2A replicon, read-out: Replicon 2A EC50

Row | Compound | IC50 (CEM-DNR-bulk; daunorubicin resistant subline) | IC50 (K562-TAX; paclitaxel resistant subline) | IC50 (MRC-5; [3]) | IC50 (HCT116; HCT-116, 72 h incubation) | CC50 [1] | EC50 [2, 4] | IC50 (CCRF-CEM; 72 h incubation) | IC50 (HepG2; HepG2, 72 h incubation) | IC50 (HCT116p53-/-; HCT-116, 72 h incubation) | IC50 (CEM-DNR-bulk) | IC50 (K562-TAX) | IC50 (MRC-5; MRC5, 72 h) | IC50 (HCT116; HCT-116, 72 h) | EC50 ([2]; Huh-7, read-out: Replicon 2A EC50) | IC50 (CCRF-CEM; 72 h) | IC50 (HepG2; HepG2, 72 h) | IC50 (HCT116p53-/-; HCT-116, 72 h)
1 | CN(C)c1ncnc2c1c(-c1ccoc1)cn2[C@@H]1O[C@H](CO)[C@@H](O)[C@H]1O [Compound 4b, 4-Dimethylamino-5-(furan-3-yl)-7-(β-D-ribofuranosyl)-7H-pyrrolo[2,3-d]pyrimidine] | > 20 µM | 14.9 µM | > 100 µM | > 20 µM | > 44 µM | > 44 µM | 13.3 µM | 12.5 µM | > 20 µM | – | – | – | – | – | – | – | –
2 | CN(C)c1ncnc2c1c(-c1cccs1)cn2[C@@H]1O[C@H](CO)[C@@H](O)[C@H]1O [Compound 4c, 4-Dimethylamino-7-(β-D-ribofuranosyl)-5-(thiophen-2-yl)-7H-pyrrolo[2,3-d]pyrimidine] | > 20 µM | > 20 µM | > 100 µM | > 20 µM | > 44 µM | > 44 µM | > 20 µM | > 20 µM | > 20 µM | – | – | – | – | – | – | – | –
3 | CN(C)c1ncnc2c1c(-c1ccsc1)cn2[C@@H]1O[C@H](CO)[C@@H](O)[C@H]1O [Compound 4d, 4-Dimethylamino-7-(β-D-ribofuranosyl)-5-(thiophen-3-yl)-7H-pyrrolo[2,3-d]pyrimidine] | > 20 µM | > 20 µM | > 100 µM | > 20 µM | > 44 µM | > 44 µM | 3.48 µM | > 20 µM | > 20 µM | – | – | – | – | – | – | – | –
4 | CN(C)c1ncnc2c1c(-c1ccccc1)cn2[C@@H]1O[C@H](CO)[C@@H](O)[C@H]1O [Compound 4e, 4-Dimethylamino-5-phenyl-7-(β-D-ribofuranosyl)-7H-pyrrolo[2,3-d]pyrimidine] | > 20 µM | > 20 µM | > 100 µM | > 20 µM | > 44 µM | > 44 µM | > 20 µM | > 20 µM | > 20 µM | – | – | – | – | – | – | – | –
5 | CN(C)c1ncnc2c1c(-c1cc3ccccc3o1)cn2[C@@H]1O[C@H](CO)[C@@H](O)[C@H]1O [Compound 4f, 5-(Benzofuran-2-yl)-4-dimethylamino-7-(β-D-ribofuranosyl)-7H-pyrrolo[2,3-d]pyrimidine] | > 20 µM | > 20 µM | > 100 µM | > 20 µM | > 44 µM | > 44 µM | > 20 µM | > 20 µM | > 20 µM | – | – | – | – | – | – | – | –
6 | C#Cc1cn([C@@H]2O[C@H](CO)[C@@H](O)[C@H]2O)c2ncnc(N(C)C)c12 [Compound 4g, 4-Dimethylamino-5-ethynyl-7-(β-D-ribofuranosyl)-7H-pyrrolo[2,3-d]pyrimidine] | 0.24 µM | 0.26 µM | 36.1 µM | 0.18 µM | > 44 µM | 0.1 µM | 0.09 µM | 1.32 µM | 0.29 µM | – | – | – | – | – | – | – | –
7 | CN(C)c1ncnc2c1c(I)cn2[C@@H]1O[C@H](CO)[C@@H](O)[C@H]1O [Compound 4h, 4-Dimethylamino-5-iodo-7-(β-D-ribofuranosyl)-7H-pyrrolo[2,3-d]pyrimidine] | 0.1 µM | 0.05 µM | 91.7 µM | 0.09 µM | > 44 µM | > 44 µM | 1.59 µM | 13.9 µM | 0.12 µM | – | – | – | – | – | – | – | –
8 | Cc1ncnc2c1c(-c1ccco1)cn2[C@@H]1O[C@H](CO)[C@@H](O)[C@H]1O [Compound 5a, 5-(Furan-2-yl)-4-methyl-7-(β-D-ribofuranosyl)-7H-pyrrolo[2,3-d]pyrimidine] | 0.07 µM | 0.11 µM | 0.61 µM | 0.04 µM | 6.62 µM | 0.15 µM | 0.04 µM | 0.3 µM | 0.04 µM | – | – | – | – | – | – | – | –
9 | Cc1ncnc2c1c(-c1ccoc1)cn2[C@@H]1O[C@H](CO)[C@@H](O)[C@H]1O [Compound 5b, 5-(Furan-3-yl)-4-methyl-7-(β-D-ribofuranosyl)-7H-pyrrolo[2,3-d]pyrimidine] | > 20 µM | > 20 µM | 98.3 µM | > 20 µM | > 44 µM | > 44 µM | > 20 µM | 5.32 µM | > 20 µM | – | – | – | – | – | – | – | –
10 | Cc1ncnc2c1c(-c1cccs1)cn2[C@@H]1O[C@H](CO)[C@@H](O)[C@H]1O [Compound 5c, 4-Methyl-7-(β-D-ribofuranosyl)-5-(thiophen-2-yl)-7H-pyrrolo[2,3-d]pyrimidine] | > 20 µM | > 20 µM | > 100 µM | > 20 µM | > 44 µM | > 44 µM | > 20 µM | > 15 µM | > 20 µM | – | – | – | – | – | – | – | –
11 | Cc1ncnc2c1c(-c1ccsc1)cn2[C@@H]1O[C@H](CO)[C@@H](O)[C@H]1O [Compound 5d, 4-Methyl-7-(β-D-ribofuranosyl)-5-(thiophen-3-yl)-7H-pyrrolo[2,3-d]pyrimidine] | 8.56 µM | 5.55 µM | > 100 µM | 0.46 µM | > 44 µM | > 44 µM | 11.2 µM | 4.72 µM | 1.43 µM | – | – | – | – | – | – | – | –
12 | Cc1ncnc2c1c(-c1ccccc1)cn2[C@@H]1O[C@H](CO)[C@@H](O)[C@H]1O [Compound 5e, 4-Methyl-5-phenyl-7-(β-D-ribofuranosyl)-7H-pyrrolo[2,3-d]pyrimidine] | > 20 µM | > 20 µM | > 100 µM | > 100 µM | > 44 µM | > 44 µM | > 20 µM | > 20 µM | 95.3 µM | – | – | – | – | – | – | – | –
13 | Cc1ncnc2c1c(-c1cc3ccccc3o1)cn2[C@@H]1O[C@H](CO)[C@@H](O)[C@H]1O [Compound 5f, 5-(Benzofuran-2-yl)-4-methyl-7-(β-D-ribofuranosyl)-7H-pyrrolo[2,3-d]pyrimidine] | > 20 µM | > 20 µM | 84.4 µM | > 20 µM | > 44 µM | 40.2 µM | 17.3 µM | > 20 µM | > 20 µM | – | – | – | – | – | – | – | –
14 | C#Cc1cn([C@@H]2O[C@H](CO)[C@@H](O)[C@H]2O)c2ncnc(C)c12 [Compound 5g, 5-Ethynyl-4-methyl-7-(β-D-ribofuranosyl)-7H-pyrrolo[2,3-d]pyrimidine] | 0.16 µM | 0.11 µM | 1.44 µM | > 20 µM | > 44 µM | 21.6 µM | 5.6 µM | 0.29 µM | > 20 µM | – | – | – | – | – | – | – | –
15 | COc1ncnc2c1ccn2[C@@H]1O[C@H](CO)[C@@H](O)[C@H]1O [RC1, reference compound] | > 20 µM | > 20 µM | > 100 µM | > 20 µM | > 44 µM | > 44 µM | > 20 µM | > 20 µM | > 20 µM | – | – | – | – | – | – | – | –
16 | CSc1ncnc2c1ccn2[C@@H]1O[C@H](CO)[C@@H](O)[C@H]1O [RC2, reference compound] | – | – | – | – | > 44 µM | – | – | – | – | 3.61 µM | 0.1 µM | > 100 µM | > 20 µM | > 44 µM | > 20 µM | > 20 µM | > 20 µM
17 | CNc1ncnc2c1ccn2[C@@H]1O[C@H](CO)[C@@H](O)[C@H]1O [RC3, reference compound] | 4.89 µM | 0.92 µM | 97.8 µM | > 20 µM | > 44 µM | > 44 µM | > 20 µM | > 20 µM | > 20 µM | – | – | – | – | – | – | – | –
18 | CN(C)c1ncnc2c1ccn2[C@@H]1O[C@H](CO)[C@@H](O)[C@H]1O [RC4, reference compound] | 2.6 µM | 0.89 µM | 58.2 µM | 18.4 µM | > 44 µM | 0.97 µM | 0.63 µM | 1.81 µM | 5.09 µM | – | – | – | – | – | – | – | –
